{
  "source": "patent US20240158472A1",
  "about": "“FERRITIN VARIANTS WITH INCREASED STABILITY AND COMPLEXATION ABILITY” (Cellis AG, priority 2021, published 2024)",
  "tested_on": "siRNA",
  "test": "Association of ferritin with siRNA, gel",
  "assay_type": "binding",
  "description": "1 ml reaction containing 2 mg Ft and 4 ug siRNA in DPBS, pH lowered to values as indicated (2.5, 3.2, 4.4, 5.6 and 6.8, respectively). Samples were incubated 15 min in RT, then NaOH was added to adjust pH to neutral (pH 7). Non-associated free siRNA was removed by 4 centrifugation steps on Amicons with 100 kDa cut-off.",
  "data": [
    {"substance": "Q11E mutant: Examples 3-8 ferritin variant based on Q11E with added K54E, K72E, K87Q, K144E, C91S, C103S and C131S", "values": [
      {"measurement": "association with siRNA", "setting": "incubated in pH 2.4 and 3.2", "result": "not"},
      {"measurement": "association with siRNA", "setting": "incubated in pH range 4.4 to 6.8, 2 mg Ft and 4 ug siRNA", "result": "associated with siRNA"}
    ]}
  ]
}
